Assay results taken from PMC7211195 (Investigational New Drugs, 2019).
Where “and” joins values, the source holds several entries; their conditions need not be identical. Equal values may be shown once.

Experiment: Lapatinib pharmacokinetics and uptake in rat brain tissue (BT);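 for BT corr (BT homogenate corrected), single rat: brain concentration corrected for residual brain blood by the Fridén method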;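 for BT corr (BT homogenate), single rat: brain concentration corrected for residual brain blood by the Fridén method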
Type: in vivo, rats
Settings: for BT corr (BT homogenate), S / BT corr (BT homogenate), single rat: lapatinib 100 mg/kg + elacridar; for BT corr (BT homogenate corrected), single rat: lapatinib p.o. 100 mg/kg alone, 100 mg/kg
Description: This study was conducted on rats, which are a promising model to predict P-gp-based drug-drug interactions at the human BBB [15]. The animals were allowed to acclimate for one week before the beginning of the experiments. Adult male Wistar-strain rats (weight 470–525 g) were used in the study. The animals were maintained under standard breeding conditions with a 12/12 h light-dark cycle (lights on at 6.00 a.m., lights off at 6.00 p.m.) at constant room temperature (23 ± 2 °C), relative humidity (55 ± 10%) and ad libitum access to food and water. The experimental protocol for this study was reviewed and approved by the Local Ethics Committee. To obtain consistent data, the study was based on the required minimum number of animals and observation time. […] Three rats were used at each time point (n = 3). In total, the research was conducted on 66 animals (n = 33 in the experimental group and n = 33 in the control group).
Elacridar was freshly dissolved in a vehicle at an initial concentration of 20 mg/mL. […] A volume of 80 μL of blood was collected from each rat by cutting off a piece of its tail. The blood samples were collected into heparinized test tubes at the following time points: […], and they were immediately centrifuged at 2880 g for 10 min at 4 °C. The anaesthetized rats (anaesthetized by intramuscular administration of 50 mg/kg ketamine and 10 mg/kg xylazine) were prepared for cisterna magna puncture. The hair over the puncture was removed and the skin was disinfected with alcohol. The animals were placed in a recumbent position with an elevated rear part of the body. The animals’ heads were slightly flexed and immobilized with the operator’s left hand. The space between the occiput rostrally and the atlas (C1) of the spinal column caudally was gently palpated with the left thumb. A 0.7 × 20 G needle with polyethylene tubing (Terumo Poland, Warsaw, Poland) was gently inserted at an approximate angle of 80–90° through the skin with the operator’s right hand into the midsagittal region. The moment that dura mater perforation was perceptible, a small amount of CSF was found in the needle tubing. To sample additional CSF, a 1 mL insulin syringe (Becton Dickinson, Warsaw, Poland) was used to collect 80–120 μL of CSF by very gentle aspiration. Only clear CSF was collected for further analysis. […] The animals’ brains were immediately dissected, washed in 0.9% NaCl and divided along the longitudinal axis. One of the brain hemispheres was again rinsed three times with 5 mL of 0.9% NaCl, weighed and homogenized with 0.9% NaCl (4 mL per 1 g of BT) in an Ultra-Turrax homogenizer (Witko, Łódź, Poland). The homogenate was then centrifuged at 4500 g for 10 min. All samples of the rat BP, CSF, and BT homogenate supernatant were stored at −80 °C until analysis.
The chromatographic analysis was conducted using a 1260 Infinity system (Agilent Technologies, Santa Clara, USA) equipped with a Kinetex® C18 column (50 × 4.6 mm, 2.6 μm, Phenomenex, Torrance, USA), which was maintained at 35 °C. The mobile phase consisted of 0.1% formic acid (v/v) in water with 5 mM ammonium formate (solvent A) and acetonitrile with 10% phase A (v/v, solvent B). The analyte and internal standard (IS, erlotinib) were eluted using a gradient run of 10 min as follows: 95% A at 0–2 min; 95%–5% A at 2–4 min; 5% A at 4–5 min; 5%–95% A at 5–6 min; 95% A at 6–10 min. The flow rate and injection volume were set at 0.7 mL/min and 10 μL, respectively. The needle was washed for 30 s in a mixture of acetonitrile, methanol, isopropanol, water, and formic acid (50:20:15:15:0.25, v/v/v/v/v).

AUC0-∞ increase by elacridar (BT): 1.9 times | Cmax increase in IE+L vs control (BT): 1.55 fold and 1.5 fold | Kp decrease in IL+E group vs control (BT): 25% | t0.5 longer in the presence of elacridar (BT): 2.5 times | AUC0-t increased in IE+L (BT, IE+L vs IIL group): 92.6% | AUC0-∞ increase with elacridar (BT, IE+L vs IIL group): 86.5% | Cmax increase with elacridar (BT, IE+L vs IIL group): 54.7% | AUMC0-t (brain tissue, lapatinib 100 mg/kg oral + 5 mg/kg elacridar (IE+L), first AUMC0-t line (r32)): 16,040.19 ± 2981.02 ng × h^2/mL | AUMC0-t (brain tissue, lapatinib 100 mg/kg oral + 5 mg/kg elacridar (IE+L), second AUMC0-t line (r33)): 57,148.33 ± 29,162.29 ng × h^2/mL | MRT0-t (brain tissue, lapatinib 100 mg/kg oral alone (IIL)): 5.73 ± 0.06 h | AUMC0-t (brain tissue, lapatinib 100 mg/kg oral alone (IIL), first AUMC0-t line (r32)): 4792.63 ± 173.92 ng × h^2/mL | AUMC0-t (brain tissue, lapatinib 100 mg/kg oral alone (IIL), second AUMC0-t line (r33)): 17,455.77 ± 17,542.73 ng × h^2/mL | BT corr (BT homogenate), S (0.25 h): 33.08 ng/mL | BT corr (BT homogenate), single rat (0.25 h): 35.46 ng/mL | BT corr (BT homogenate), single rat (0.25 h, listed as Lapatinib): 35.46 ng/mL | BT corr (BT homogenate), S (0.5 h): 43.57 ng/mL | BT corr (BT homogenate), single rat (0.5 h): 41.98 ng/mL | BT corr (BT homogenate), single rat (0.5 h, listed as Lapatinib): 41.98 ng/mL | BT corr (BT homogenate), single rat (2 h): 39.78 ng/mL and 102.9 ng/mL | BT corr (BT homogenate), single rat (2 h, listed as Lapatinib): 39.78 ng/mL and 102.90 ng/mL | BT corr (BT homogenate), S (3 h): 197.6723 ng/mL | BT corr (BT homogenate), single rat (3 h): 170.09 ng/mL and 225.26 ng/mL | BT corr (BT homogenate), single rat (3 h, listed as Lapatinib): 225.26 ng/mL | BT corr (BT homogenate), S (4 h): 85.05 ng/mL | BT corr (BT homogenate), single rat (4 h): 91.94 ng/mL | BT corr (BT homogenate), S (6 h): 85.7722 ng/mL | BT corr (BT homogenate), single rat (6 h): 84.2 ng/mL | BT corr (BT homogenate), single rat (6 h, listed as Lapatinib): 84.20 ng/mL | BT corr (BT homogenate), S (8 h): 85.02 ng/mL | BT corr (BT homogenate), single rat (12 h): 45.12 ng/mL | BT corr (BT homogenate), single rat (12 h, listed as Lapatinib): 45.12 ng/mL | BT corr (BT homogenate), S (24 h): 44.69 ng/mL | BT corr (BT homogenate), single rat (24 h): 36.68 ng/mL | BT corr (BT homogenate), single rat (24 h, listed as Lapatinib): 36.68 ng/mL | BT corr (BT homogenate corrected), single rat (0.25 h): 33.26 ng/mL | BT corr (BT homogenate corrected), single rat (0.25 h, listed as Lapatinib): 33.26 ng/mL | BT corr (BT homogenate corrected), single rat (0.5 h): 39.02 ng/mL | BT corr (BT homogenate corrected), single rat (0.5 h, listed as Lapatinib): 39.02 ng/mL
Structure (SMILES): CS(=O)(=O)CCNCc1ccc(-c2ccc3ncnc(Nc4ccc(OCc5cccc(F)c5)c(Cl)c4)c3c2)o1 [lapatinib, N-{3-Chloro-4-[(3-fluorobenzyl)oxy]phenyl}-6-[5-({[2-(methylsulfonyl)ethyl]amino}methyl)-2-furyl]-4-quinazolinamine]
